Experimental data as given in ChEMBL document CHEMBL1133777, “De novo design of a novel oxazolidinone analogue as a potent and selective alpha1A adrenergic receptor antagonist with high oral bioavailability” (J Med Chem, 2000).

Experiments:
[1] = biological target: T1, 5-hydroxytryptamine receptor 1A (Mus musculus, UniProt Q64264); assay: Binding affinity towards 5-hydroxytryptamine 1A receptor receptor, using [3H]5-HT as radioligand.
T1 sequence (Q64264 whole entry): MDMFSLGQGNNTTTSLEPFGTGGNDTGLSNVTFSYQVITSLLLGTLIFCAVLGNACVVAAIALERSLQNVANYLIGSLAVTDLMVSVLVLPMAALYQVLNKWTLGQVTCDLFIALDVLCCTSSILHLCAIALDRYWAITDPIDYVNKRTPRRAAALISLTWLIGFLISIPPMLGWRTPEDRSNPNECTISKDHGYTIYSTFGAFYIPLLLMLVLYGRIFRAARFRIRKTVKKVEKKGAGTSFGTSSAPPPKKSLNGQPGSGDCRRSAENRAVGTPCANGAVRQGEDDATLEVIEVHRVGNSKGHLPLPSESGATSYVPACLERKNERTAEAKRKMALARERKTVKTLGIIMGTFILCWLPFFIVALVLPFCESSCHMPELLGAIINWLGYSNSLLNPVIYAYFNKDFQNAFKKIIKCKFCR

[2] = biological target: 5-hydroxytryptamine receptor 1B (Homo sapiens, UniProt P28222); assay: Binding affinity towards 5-hydroxytryptamine 1B receptor using [3H]5-HT as radioligand.
[3] = biological target: 5-hydroxytryptamine receptor 1D (Homo sapiens, UniProt P28221); assay: Binding affinity towards 5-HT1D receptor, using [3H]5-HT as radioligand.
[4] = biological target: 5-hydroxytryptamine receptor 2A (Homo sapiens, UniProt P28223); assay: Binding affinity towards 5-hydroxytryptamine 2A receptor using [3H]5-HT as radioligand.
[5] = Oral bioavailability in rat; format: ADME, organism-based; details: in vivo
[6] = Oral bioavailability in dog; format: ADME, organism-based, Canis lupus familiaris; details: in vivo
[7] = Half-life in dog; format: ADME, organism-based, Canis lupus familiaris; details: in vivo
[8] = Half-life in rat; format: ADME, organism-based; details: in vivo
[9] = biological target: T2, Alpha-1D adrenergic receptor (Homo sapiens, UniProt P25100); assay: Binding affinity towards Alpha1D human adrenergic receptors, using [125I]HEAT as radioligand.
T2 sequence (P25100 whole entry): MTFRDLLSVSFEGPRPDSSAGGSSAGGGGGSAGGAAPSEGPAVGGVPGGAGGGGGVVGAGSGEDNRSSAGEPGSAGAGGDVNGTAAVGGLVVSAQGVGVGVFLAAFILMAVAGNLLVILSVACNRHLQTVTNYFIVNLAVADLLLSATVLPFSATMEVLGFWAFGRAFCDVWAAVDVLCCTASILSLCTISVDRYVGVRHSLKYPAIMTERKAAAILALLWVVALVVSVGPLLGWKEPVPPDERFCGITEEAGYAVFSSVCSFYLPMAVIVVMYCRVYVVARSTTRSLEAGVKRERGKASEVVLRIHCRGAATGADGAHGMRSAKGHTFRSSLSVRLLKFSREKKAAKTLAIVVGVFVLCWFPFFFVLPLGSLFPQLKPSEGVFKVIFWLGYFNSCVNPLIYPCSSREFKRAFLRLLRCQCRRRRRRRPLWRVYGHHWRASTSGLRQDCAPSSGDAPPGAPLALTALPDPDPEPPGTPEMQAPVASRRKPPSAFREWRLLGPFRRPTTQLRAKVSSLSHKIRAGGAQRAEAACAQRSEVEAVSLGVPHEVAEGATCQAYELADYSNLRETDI

[10] = biological target: T3, Alpha-1D adrenergic receptor (Rattus norvegicus, UniProt P23944); assay: Binding affinity towards Alpha1D rat adrenergic receptors, using [125I]HEAT as radioligand.
T3 sequence (P23944 whole entry): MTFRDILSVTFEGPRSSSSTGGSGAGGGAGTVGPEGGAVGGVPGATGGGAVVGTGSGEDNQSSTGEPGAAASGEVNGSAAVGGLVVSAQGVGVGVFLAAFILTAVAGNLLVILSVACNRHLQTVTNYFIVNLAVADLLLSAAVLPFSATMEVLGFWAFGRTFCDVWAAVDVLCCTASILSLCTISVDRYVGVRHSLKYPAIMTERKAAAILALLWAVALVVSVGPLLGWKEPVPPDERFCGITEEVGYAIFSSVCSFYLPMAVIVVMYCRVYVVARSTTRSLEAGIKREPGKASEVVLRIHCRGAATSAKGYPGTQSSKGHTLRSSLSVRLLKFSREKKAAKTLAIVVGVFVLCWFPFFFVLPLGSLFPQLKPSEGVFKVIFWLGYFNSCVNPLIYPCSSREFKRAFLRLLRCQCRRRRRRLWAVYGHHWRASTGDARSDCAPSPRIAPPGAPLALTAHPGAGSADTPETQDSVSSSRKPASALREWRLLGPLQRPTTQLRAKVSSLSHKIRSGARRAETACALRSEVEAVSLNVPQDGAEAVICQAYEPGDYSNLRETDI

[11] = biological target: T4, Alpha-2A adrenergic receptor (Homo sapiens, UniProt P08913); assay: Binding affinity towards human alpha-2A-adrenergic receptor, using [3H]rauwolscine as radioligand.
T4 sequence (P08913 whole entry): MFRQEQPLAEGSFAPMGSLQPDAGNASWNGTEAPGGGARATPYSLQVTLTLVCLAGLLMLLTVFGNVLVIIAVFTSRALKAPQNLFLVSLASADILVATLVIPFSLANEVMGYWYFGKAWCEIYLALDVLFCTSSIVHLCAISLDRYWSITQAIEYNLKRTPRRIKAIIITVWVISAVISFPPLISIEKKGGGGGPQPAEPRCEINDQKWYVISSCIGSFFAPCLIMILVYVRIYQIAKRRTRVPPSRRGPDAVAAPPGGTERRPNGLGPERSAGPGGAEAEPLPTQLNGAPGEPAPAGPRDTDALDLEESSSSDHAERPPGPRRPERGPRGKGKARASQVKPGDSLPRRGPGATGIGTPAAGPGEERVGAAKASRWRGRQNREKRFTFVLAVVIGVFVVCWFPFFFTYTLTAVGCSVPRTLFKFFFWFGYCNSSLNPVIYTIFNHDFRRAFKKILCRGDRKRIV

[12] = biological target: T5, Alpha-2B adrenergic receptor (Homo sapiens, UniProt P18089); assay: Binding affinity towards human alpha-2B-adrenergic receptor, using [3H]rauwolscine as radioligand.
T5 sequence (P18089 whole entry): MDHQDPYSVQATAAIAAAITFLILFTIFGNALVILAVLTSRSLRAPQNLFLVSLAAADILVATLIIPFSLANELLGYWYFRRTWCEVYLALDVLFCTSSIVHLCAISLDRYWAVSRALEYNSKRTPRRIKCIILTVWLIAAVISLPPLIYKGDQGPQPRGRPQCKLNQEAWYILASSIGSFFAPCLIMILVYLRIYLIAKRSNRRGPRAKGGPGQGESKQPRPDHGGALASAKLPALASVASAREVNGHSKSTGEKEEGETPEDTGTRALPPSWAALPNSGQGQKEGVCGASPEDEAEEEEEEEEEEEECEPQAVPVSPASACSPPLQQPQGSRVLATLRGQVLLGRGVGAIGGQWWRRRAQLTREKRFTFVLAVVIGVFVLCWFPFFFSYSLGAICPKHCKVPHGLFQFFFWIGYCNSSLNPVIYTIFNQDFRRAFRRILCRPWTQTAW

[13] = biological target: T6, Alpha-2C adrenergic receptor (Homo sapiens, UniProt P18825); assay: Binding affinity towards human alpha-2C-adrenergic receptor, using [3H]rauwolscine as radioligand.
T6 sequence (P18825 whole entry): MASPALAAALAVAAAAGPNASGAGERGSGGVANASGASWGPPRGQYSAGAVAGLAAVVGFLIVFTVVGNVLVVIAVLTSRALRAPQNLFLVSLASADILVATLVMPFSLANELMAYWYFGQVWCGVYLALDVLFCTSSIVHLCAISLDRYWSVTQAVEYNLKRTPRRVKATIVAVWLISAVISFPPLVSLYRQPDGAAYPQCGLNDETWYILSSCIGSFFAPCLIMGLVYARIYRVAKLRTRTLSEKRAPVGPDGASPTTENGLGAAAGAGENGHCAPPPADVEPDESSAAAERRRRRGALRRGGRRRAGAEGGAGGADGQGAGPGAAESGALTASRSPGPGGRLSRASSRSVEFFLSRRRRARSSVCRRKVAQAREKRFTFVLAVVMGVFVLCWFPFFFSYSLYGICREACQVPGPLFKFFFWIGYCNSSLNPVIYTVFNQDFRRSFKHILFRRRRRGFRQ

[14] = biological target: T7, Alpha-1B adrenergic receptor (Rattus norvegicus, UniProt P15823); assay: Binding affinity towards Alpha1B rat adrenergic receptors, using [125I]HEAT as radioligand.
T7 sequence (P15823 whole entry): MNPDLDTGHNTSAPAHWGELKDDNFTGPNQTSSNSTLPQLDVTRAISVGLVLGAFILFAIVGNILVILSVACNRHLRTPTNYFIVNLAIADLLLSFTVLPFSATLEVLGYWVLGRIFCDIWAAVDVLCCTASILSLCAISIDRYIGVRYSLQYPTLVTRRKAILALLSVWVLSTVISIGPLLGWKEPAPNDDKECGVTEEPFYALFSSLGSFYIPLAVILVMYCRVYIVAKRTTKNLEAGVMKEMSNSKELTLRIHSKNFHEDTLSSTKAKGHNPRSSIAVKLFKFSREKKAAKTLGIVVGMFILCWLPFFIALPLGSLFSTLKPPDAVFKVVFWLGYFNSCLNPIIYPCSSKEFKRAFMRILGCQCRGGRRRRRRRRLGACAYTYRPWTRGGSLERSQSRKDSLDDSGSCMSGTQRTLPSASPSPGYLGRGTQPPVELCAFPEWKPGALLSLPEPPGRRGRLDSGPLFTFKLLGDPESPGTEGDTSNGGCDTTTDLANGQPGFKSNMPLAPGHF

[15] = biological target: T8, Alpha-1B adrenergic receptor (Homo sapiens, UniProt P35368); assay: Binding affinity towards Alpha1B human adrenergic receptors, using [125I]HEAT as radioligand.
T8 sequence (P35368 whole entry): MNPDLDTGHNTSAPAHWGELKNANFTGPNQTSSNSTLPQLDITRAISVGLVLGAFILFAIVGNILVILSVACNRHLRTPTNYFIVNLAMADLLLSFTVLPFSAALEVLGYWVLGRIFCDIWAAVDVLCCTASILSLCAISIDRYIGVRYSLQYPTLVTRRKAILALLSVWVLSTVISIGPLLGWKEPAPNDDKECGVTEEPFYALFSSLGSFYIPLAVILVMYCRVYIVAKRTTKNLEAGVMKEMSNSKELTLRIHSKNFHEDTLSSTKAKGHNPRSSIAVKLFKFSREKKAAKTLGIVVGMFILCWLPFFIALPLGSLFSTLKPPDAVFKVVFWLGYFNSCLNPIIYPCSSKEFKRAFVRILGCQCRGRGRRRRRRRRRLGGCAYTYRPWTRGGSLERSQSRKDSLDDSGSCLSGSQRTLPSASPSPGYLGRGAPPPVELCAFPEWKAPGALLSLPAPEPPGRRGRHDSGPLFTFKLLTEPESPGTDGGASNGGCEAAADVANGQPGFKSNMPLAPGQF

Canis familiaris [16] = assay: In vivo for selective antagonistic activity against intra-urethral pressure in dog, using phenylephrine as agonist; format: functional, Canis lupus familiaris, Urethra
Canis familiaris [17] = assay: In vivo for selective antagonistic activity against diastolic blood pressure in dog, using phenylephrine as agonist; format: functional, Canis lupus familiaris, Artery
Canis familiaris [18] = organism: Canis familiaris; assay: In vitro inhibition of phenylephrine induced contractions in dog prostate tissue; format: functional; details: Canis lupus familiaris, Prostate gland
Histamine H2 receptor = Histamine H2 receptor (Homo sapiens, UniProt P25021); assay: Binding affinity towards human Histamine H2 receptor, using [3H]tiotidine as radioligand.
[19] = biological target: Voltage-gated L-type calcium channel (Rattus norvegicus, UniProt P22002+Q02485+P27732); assay: Inhibition of [3H]nitrendipine binding to rat L-type Ca-channel receptor; format: protein assay
Homo sapiens = organism: Homo sapiens; assay: In vitro inhibition of A-61603 induced contractions in human prostate tissue; format: functional; details: Prostate gland
Rattus norvegicus [20] = assay: Compound was tested in situ for the inhibition of phenylephrine-induced contractions in anesthetized rat; format: functional
Rattus norvegicus [21] = organism: Rattus norvegicus; assay: In vitro inhibition of A-61603 induced contractions in rat prostate tissue; format: functional; details: Prostate gland
Rattus norvegicus [22] = organism: Rattus norvegicus; assay: In vitro inhibition of norepinephrine induced contractions in isolated rat aorta; format: functional
Histamine H1 receptor = Histamine H1 receptor (Homo sapiens, UniProt P35367); assay: Binding affinity towards Histamine H1 receptor in human brain tissue preparation, using [3H]pyrilamine as radioligand.
Chain of Histamine H1 receptor (P35367 whole entry): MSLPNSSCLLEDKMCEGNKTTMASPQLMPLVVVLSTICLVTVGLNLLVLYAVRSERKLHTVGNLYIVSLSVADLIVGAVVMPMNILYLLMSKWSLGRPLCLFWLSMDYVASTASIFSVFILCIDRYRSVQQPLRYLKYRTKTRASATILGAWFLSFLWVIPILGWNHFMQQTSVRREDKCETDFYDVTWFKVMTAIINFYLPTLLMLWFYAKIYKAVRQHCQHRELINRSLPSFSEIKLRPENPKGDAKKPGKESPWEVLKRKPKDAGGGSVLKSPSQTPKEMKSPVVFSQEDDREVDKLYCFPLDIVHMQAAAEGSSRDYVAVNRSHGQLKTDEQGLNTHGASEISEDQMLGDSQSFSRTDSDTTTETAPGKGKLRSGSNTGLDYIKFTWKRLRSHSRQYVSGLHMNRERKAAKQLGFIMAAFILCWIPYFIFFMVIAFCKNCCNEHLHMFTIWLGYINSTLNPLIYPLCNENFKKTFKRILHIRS

Chain of 5-hydroxytryptamine receptor 1D (P28221 whole entry): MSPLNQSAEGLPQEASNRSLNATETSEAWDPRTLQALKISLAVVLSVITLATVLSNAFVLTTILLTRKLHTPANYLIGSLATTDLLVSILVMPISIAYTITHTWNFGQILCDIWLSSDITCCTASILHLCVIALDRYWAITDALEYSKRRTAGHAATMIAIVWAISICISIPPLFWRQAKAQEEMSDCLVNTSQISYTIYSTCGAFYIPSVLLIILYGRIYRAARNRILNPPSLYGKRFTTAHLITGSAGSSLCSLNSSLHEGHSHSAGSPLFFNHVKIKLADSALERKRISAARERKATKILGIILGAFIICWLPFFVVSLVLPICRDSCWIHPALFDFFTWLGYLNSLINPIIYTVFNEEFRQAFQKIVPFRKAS
Chain of 5-hydroxytryptamine receptor 2A (P28223 whole entry): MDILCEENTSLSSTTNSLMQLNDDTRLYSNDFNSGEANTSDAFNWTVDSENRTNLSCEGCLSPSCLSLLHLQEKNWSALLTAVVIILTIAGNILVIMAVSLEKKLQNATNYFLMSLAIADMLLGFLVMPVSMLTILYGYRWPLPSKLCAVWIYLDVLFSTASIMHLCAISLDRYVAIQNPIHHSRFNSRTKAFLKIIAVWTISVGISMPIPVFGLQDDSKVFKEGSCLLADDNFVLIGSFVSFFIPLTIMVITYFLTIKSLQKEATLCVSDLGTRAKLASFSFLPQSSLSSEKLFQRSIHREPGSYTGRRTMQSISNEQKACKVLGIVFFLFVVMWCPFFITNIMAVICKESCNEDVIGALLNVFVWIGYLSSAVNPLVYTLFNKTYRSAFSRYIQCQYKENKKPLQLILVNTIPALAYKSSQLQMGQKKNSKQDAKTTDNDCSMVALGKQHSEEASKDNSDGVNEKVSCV
Chain of Histamine H2 receptor (P25021 whole entry): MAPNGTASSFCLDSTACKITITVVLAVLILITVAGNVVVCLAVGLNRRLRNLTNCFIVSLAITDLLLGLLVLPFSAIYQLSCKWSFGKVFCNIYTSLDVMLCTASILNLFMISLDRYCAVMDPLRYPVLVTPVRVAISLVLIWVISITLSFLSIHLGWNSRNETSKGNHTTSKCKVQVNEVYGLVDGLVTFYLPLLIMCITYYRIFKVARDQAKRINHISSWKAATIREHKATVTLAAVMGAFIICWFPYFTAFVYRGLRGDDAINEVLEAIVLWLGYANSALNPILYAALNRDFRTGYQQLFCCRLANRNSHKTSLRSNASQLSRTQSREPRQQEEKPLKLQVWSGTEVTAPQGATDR
Chain of 5-hydroxytryptamine receptor 1B (P28222 whole entry): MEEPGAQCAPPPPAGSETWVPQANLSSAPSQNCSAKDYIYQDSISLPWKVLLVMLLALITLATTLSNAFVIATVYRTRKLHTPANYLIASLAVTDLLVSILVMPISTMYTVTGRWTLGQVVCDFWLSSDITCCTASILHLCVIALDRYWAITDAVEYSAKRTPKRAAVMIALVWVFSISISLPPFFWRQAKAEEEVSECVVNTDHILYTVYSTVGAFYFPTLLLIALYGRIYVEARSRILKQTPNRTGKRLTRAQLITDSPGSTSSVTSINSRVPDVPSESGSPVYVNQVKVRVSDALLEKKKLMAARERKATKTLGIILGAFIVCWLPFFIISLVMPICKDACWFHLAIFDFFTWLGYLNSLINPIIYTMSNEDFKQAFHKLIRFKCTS

Compound: C[C@@H]1OC(=O)N(C(=O)NCCCN2CCC(c3ccc(F)cc3)CC2)[C@H]1c1ccc(F)c(F)c1
- Ki [1]: > 500 nM
- Ki [2]: > 500 nM
- Ki [3]: > 500 nM
- Ki [4]: > 500 nM
- bioavailability [5]: 25%
- bioavailability [6]: 74%
- half-life [7]: > 12 h
- half-life [8]: 6 h
- Ki [9]: 122 nM
- Ki [10]: 62 nM
- Ki [11]: > 45 nM
- Ki [12]: > 45 nM
- Ki [13]: > 45 nM
- Ki [14]: 79 nM
- Ki [15]: 119 nM
- Kb (Canis familiaris [16]): 3 µg/kg
- DBP15 (Canis familiaris [17]): >300 µg/kg
- Kb (Canis familiaris [18]): 0.33 nM
- Ki (Histamine H2 receptor): > 1000 nM
- Ki [19]: > 1000 nM
- Kb (Homo sapiens): 0.1 nM
- AD50 (Rattus norvegicus [20]): 0.012 mg/kg
- Kb (Rattus norvegicus [21]): 0.26 nM
- Kb (Rattus norvegicus [22]): > 1000 nM
- Ki (Histamine H1 receptor): 54 nM

Compound: COc1cc2nc(N3CCN(C(=O)C4CCCO4)CC3)nc(N)c2cc1OC (configuration not stated) [TERAZOSIN]
- Kb (Canis familiaris [16]): 16 µg/kg
- DBP15 (Canis familiaris [17]): 72 µg/kg
- Kb (Canis familiaris [18]): 130 nM
- Kb (Homo sapiens): 25 nM
- AD50 (Rattus norvegicus [20]): 0.052 mg/kg
- Kb (Rattus norvegicus [21]): 25 nM
- Kb (Rattus norvegicus [22]): 19 nM
